Laboratory results published in US20040038369A1, “Airway-specific trypsin-like enzymes and method of using the same” (priority 2000, published 2004).

How the values were obtained:
PAR-1 = target: T1, PAR-1 (Homo sapiens, UniProt P25116); assay: Calcium influx in PAR-1-expressing insect cells; type: cell-based; conditions: AST 2 units/mL; trypsin, thrombin 0.1 to 10 units/mL; SFLLRNamide 10 to 100 μM
T1 construct: expressed in transfected cells; host or cells: Sf9 insect cells infected with recombinant baculovirus VL-PAR (pVL1393)
T1 sequence (P25116 22-425): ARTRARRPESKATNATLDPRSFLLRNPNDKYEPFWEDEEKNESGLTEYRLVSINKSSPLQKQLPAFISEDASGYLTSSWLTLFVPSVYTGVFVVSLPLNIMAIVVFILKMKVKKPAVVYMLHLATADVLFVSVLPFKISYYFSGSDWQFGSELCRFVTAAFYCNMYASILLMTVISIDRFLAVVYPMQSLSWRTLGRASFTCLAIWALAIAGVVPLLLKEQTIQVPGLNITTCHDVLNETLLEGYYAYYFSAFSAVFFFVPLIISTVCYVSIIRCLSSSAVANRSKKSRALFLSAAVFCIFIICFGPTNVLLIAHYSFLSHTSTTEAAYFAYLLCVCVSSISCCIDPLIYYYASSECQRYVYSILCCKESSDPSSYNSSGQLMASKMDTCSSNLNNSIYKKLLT
Experimental: The above-obtained recombinant baculovirus VL-PAR for expressing the PAR was used to infect 1.0×10^7 Sf9 cells sowed on a 75 cm^2 flask at an MOI=2, and was then left and stationally cultured at 27° C. for 40 hours. After the culture, the infected cells were recovered and then subjected to a calcium influx experiment to-confirm the function of the PAR.
The recovered infected cells (about 5×10^6 cells) were once washed with HEPES-Tyrode buffer solution-Ca^2+ (−) pH 7.4, and then suspended in 5 mL of HEPES-Tyrode buffer solution (containing Fura2-AM, 1 μg/mL) to load the Fura2-AM on the cells at 27° C. for 30 minutes. The suspension was centrifuged at 800 rpm at room temperature for 5 minutes to recover the cells. The cells were twice washed with HEPES-Tyrode buffer solution-Ca^2+ (−) pH 7.4 and then resuspended in 5 mL of HEPES-Tyrode buffer solution-Ca^2+ (−) pH 7.4. The cell suspension was mixed with 5 μL of 1M CaCl2 to give a final concentration of 1 mM CaCl2, and then incubated in a shaded state at room temperature for 5 minutes. The prepared Fura2-AM-loaded infected cells were dispensed into a 96 well plate in a volume of 100 μL/well, further subjected to the dispensation of HEPES-Tyrode buffer solution-C^2+ (+) pH 7.4 in a volume of 80 μL/well, and then assayed with a Fluorescence Drug Screening System (made by Hamamatsu Photonics Co.). Namely, [intensity of 500 nm fluorescent light due to 340 nm exciting light]/[intensity of 500 nm fluorescent light due to 380 nm exciting light] (reflecting the concentration of calcium in the cells) was assayed.

[1] = Enzymatic activity of mammalian ASTs transiently expressed in 293 EBNA cells; type: biochemical
Experimental: A forward primer and a reverse primer were prepared on gene sequences encoding the N-terminal and C-terminal of each mammalian AST, and a cDNA encoding the full-length AST was prepared by a PCR amplification using the forward primer, the reverse primer, Pyrobest DNA polymerase (produced by Takara Shuzo Co.), and an airway cDNA as a template. On the other hand, a product obtained by cleaving pcDNA3 (produced by Invitrogen Corp.) with restriction enzymes NruI and KpnI, and the promoter domain of Elongation Factor-1a (EF-1 a) from human genome were amplified by a PCR using a forward primer: […] and a reverse primer: […]. […]
Human fetal kidney-originated 293 EBNA cells (Invitrogen Corp.) were cultured in a 10 cm schale, and the about 5.8×10^6 cells were transfected with 28 μg of each expression plasmid prepared in (1) in 56 μL of LipofectAMINE 2000 (produced by GibcoBRL Corp.) according to an appended manual. […] 40 μL of the above-described assay sample was mixed with 20 μL of a synthetic substrate solution (a solution obtained by diluting a 10 mM Boc-Phe-Ser-Arg-MCA DMSO (dimethyl sulfoxide) solution with the buffer solution for the AST activity assay 50 times), and the increase of the fluorescence intensity per minute was assayed (fluorescence wavelength: 460 nm, excitation wavelength: 380 nm) to determine the enzymatic activity.

HAST: human airway-specific trypsin-like enzyme; propeptide moiety bound to trypsin-like protein moiety via a disulfide bond
Ca2+ influx (PAR-1): observed | Cell lysate Fluorescence intensity ratio (Human:100) ([1]; 293 EBNA cell lysate, three days after transfection): 100 | Sup Fluorescence intensity ratio (Human:100) ([1]; 293 EBNA, Sup): 100
